Values of other authors as cited in PMC9054096 (RSC Advances, 2020).

What was measured:
[1] = target: Human galectin-3 (Homo sapiens, UniProt P17931); conditions: read-out: Galectin-3 affinity (Kd); reference compound
[2] = target: Human galectin-1 (Homo sapiens, UniProt P09382); conditions: read-out: Galectin-1 affinity (Kd); reference compound
[3] = target: Human galectin-9C (Homo sapiens, UniProt O00182); conditions: read-out: Galectin-9C affinity (Kd); reference compound
[4] = target: T1, Human galectin-4C (Homo sapiens, UniProt P56470); conditions: read-out: Galectin-4C affinity (Kd); reference compound
T1 sequence (P56470 194-323 limits assumed): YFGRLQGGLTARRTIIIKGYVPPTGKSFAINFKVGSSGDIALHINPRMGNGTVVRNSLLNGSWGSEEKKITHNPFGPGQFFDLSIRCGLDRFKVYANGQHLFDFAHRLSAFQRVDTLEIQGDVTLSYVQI

[5] = target: Human galectin-9N (Homo sapiens, UniProt O00182); conditions: read-out: Galectin-9N affinity (Kd); reference compound
Human galectin-9N, sequence (O00182 17-148 limits assumed): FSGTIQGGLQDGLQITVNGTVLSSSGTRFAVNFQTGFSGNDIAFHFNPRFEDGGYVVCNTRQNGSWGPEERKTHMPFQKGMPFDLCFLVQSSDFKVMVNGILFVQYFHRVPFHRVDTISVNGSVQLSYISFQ

[6] = target: T2, Human galectin-4N (Homo sapiens, UniProt P56470); conditions: read-out: Galectin-4N affinity (Kd); reference compound
T2 sequence (P56470 19-150 limits assumed): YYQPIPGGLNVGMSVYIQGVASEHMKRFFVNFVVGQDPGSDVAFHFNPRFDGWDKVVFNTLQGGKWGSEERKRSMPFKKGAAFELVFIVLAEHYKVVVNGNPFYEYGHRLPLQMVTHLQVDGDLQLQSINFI

Human galectin-1, sequence (P09382 whole entry): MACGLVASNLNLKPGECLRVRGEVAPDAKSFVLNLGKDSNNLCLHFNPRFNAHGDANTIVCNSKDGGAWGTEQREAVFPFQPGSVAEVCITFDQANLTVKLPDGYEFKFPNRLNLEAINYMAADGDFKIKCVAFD
Human galectin-3, sequence (P17931 whole entry): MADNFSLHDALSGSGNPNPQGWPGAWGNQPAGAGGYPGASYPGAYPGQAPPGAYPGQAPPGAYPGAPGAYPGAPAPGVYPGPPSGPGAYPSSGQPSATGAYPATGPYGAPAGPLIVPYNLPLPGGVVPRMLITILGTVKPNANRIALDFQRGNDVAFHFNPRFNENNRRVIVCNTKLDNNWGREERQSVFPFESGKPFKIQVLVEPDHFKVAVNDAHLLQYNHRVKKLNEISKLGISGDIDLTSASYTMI
Human galectin-9C, sequence (O00182 227-355 limits assumed): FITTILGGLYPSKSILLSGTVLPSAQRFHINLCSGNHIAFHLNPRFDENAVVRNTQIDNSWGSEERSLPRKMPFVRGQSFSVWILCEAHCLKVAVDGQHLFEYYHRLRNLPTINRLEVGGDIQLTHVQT

Kd [1]: 1.27 ± 0.07 µM
Kd [2]: 48 ± 4.4 µM
Kd [3]: 14 ± 1.3 µM
Kd [4]: 43 ± 5.7 µM
Kd [5]: 2.06 ± 0.09 µM
Kd [6]: 43 ± 7.1 µM
Compound: O=C(O)c1ccc2ccc(CO[C@@H]3[C@@H](O)[C@@H](Sc4ccc(Cl)c(Cl)c4)O[C@H](CO)[C@@H]3O)nc2c1 [Compound 2, 3,4-dichlorophenyl 3-O-(7-carboxy-quinolin-2-yl-methyl)-1-thio-α-D-galactopyranoside]
